Data on two compounds can be found in patent publication US12667571B2, “Uridine phosphorylase (UPase) inhibitors for treatment of liver conditions” (Tosk, Inc., priority 2019, dated 2026).

Structures are written as SMILES. Entries after “also recorded” stand apart in the source; their conditions may differ.

Data set [1] is described as follows: Elimination t1/2 of Compound 1 in mice. To be noted: mouse, in vivo.
In data set [2] the test system is C57BL/6 mice fed an MCD diet. Nature of the data set: Methionine-choline deficient diet (MCD) model of NASH. Particulars: end of MCD study; ip bid 28 days. In kind it is in vivo. The protocol: Mice fed an MCD diet is a standard model of diet induced NASH.^47,48 All animals were housed in ventilated standard housing cages throughout the experimental phase. Tap water was provided ad libitum to all animals. Male, 8-week old, C57BL/6 mice from Charles River were acclimated for 3 days maintained on a standard chow diet and group housed in hepa-filtered cages (5 animals per cage) on a normal 12 hours light cycle (at 8 am to 8 pm lights off). The temperature and humidity were 22±2° C. and 50±10%, respectively. Cages litters were changed once a week. ^47 Reid D T, Reyes J L, McDonald B A, Vo T, Reimer R A, Eksteen B. Kupffer Cells Undergo Fundamental Changes during the Development of Experimental NASH and Are Critical in Initiating Liver Damage and Inflammation. PLoS One. 2016, 25; 11:e0159524.^48 Ramadori P, Weiskirchen R, Trebicka J, Streetz K. Mouse models of metabolic liver injury. Lab Anim. 2015; 49(1 Suppl):47-58.
Following acclimation, the animals were randomized into homogenous treatment groups according to their body weight, and fed ad libitum a diet deficient in methionine and choline: 4.2 kcal/g; MP Biomedicals, Solon, OH). Food and water intake were measured 3 times per week (at the same time as body weight measurements). After the acclimation period, the 24 mice (n=6/treatment group) were weighed 3 times per week until sacrifice.
The 4 treatment group were: • Group 1: Vehicle+MCD • Group 2: MCD+200 mg/kg UR • Group 3: MCD+60 mg/kg Compound I • Group 4: MCD+60 mg/kg Compound 1 plus 200 mg/kg UR 30 minutes post Compound 1
All Compound 1 and UR doses (mg/kg in 10 mL/kg of vehicle) were ip, bid at least 8 hours apart, for 28 days. Vehicle=PBS. Vehicle, UR and Compound 1±UR will be dosed daily starting 2 days prior to placing the animals on a MCD diet. Mice were on the MCD diet for 26 days.
After 26 days on MCD, the animals were sacrificed ˜2 hours after the last dose and non-fasted glucose was measured along with a plasma lipid panel, TNF-α, ALT and AST. Total body weight was determined weekly. Total liver was weighed and the medial lobe excised, formalin fixed and stained with Oil Red O to evaluate lipid content. An intensity score for the fixed tissue slides measured by an independent histopathologist was also determined.

Data set [3] relates to C57BL/6 mice fed an MCD diet. The data set is described as above. In kind it is in vivo. Particulars: H&E liver sections, end of MCD study; ip bid 28 days; FIG. 4.
For the next data set, the system named is plasma UR. Nature of the data set: Plasma UR concentration versus plasma Compound 1 concentration after continuous sc osmotic-pump infusion. In kind it is in vivo. To be noted: BDF-1 male mice, result in words. The protocol: For this reason continuous infusion of compound I (authentic TK-112690, Batch TCY90108) to BDF-1 ♂ mice were administered via a sc implanted osmotic pumps and the UR plasma concentration measured, ^46 Deng Y, Wang Z V, Gordillo R, An Y, Zhang C, Liang Q, Yoshino J, Cautivo K M, De Brabander J, Elrnquist J K, Horton J D, Hill J A, Klein S, Scherer P E. An adipo-biliary-uridine axis that regulates energy homeostasis. Science 2017, 17; 355(6330)
Solutions of Compound I were prepared at a concentration of 500 mg/mL in sterile PBS. Osmotic pumps (ALZET® micro-osmotic pump 2001 D and 1003D, Alza Co) were loaded with 200 μL (2001D osmotic pump) and/or 100 μL (1003D osmotic pump) of TK-112690 solution.
BDF-1 male mice (n=6) were treated with a constant-rate infusion of 667, 833 or 3000 mg/kg/day doses of Compound I delivered via subcutaneously implanted osmotic pumps. Animals were anesthetized with 100 mg/kg ketamine prior to pump implantation. Surgical scissors were used to make an approximately 1 cm incision on the dorsal surface near the shoulder blade of animals. A hemostat was used to carve out a subcutaneous tunnel toward the anterior end of animal. Osmotic pumps were placed inside the subcutaneous tunnel. […]
A solid-phase extraction (SPE) of analytes (UR, Compound I and 5-FU) from plasma was conducted before HPLC analysis. […] Samples were transferred into fresh HPLC vials and analyzed. […]

The conditions of data set [4]: UR, reference 46; cited from earlier work.

Regarding `Cc1cn2c(nc1=O)O[C@H]1[C@H](O)[C@@H](CO)O[C@H]12` [Compound 1], the half-life (commonly the time needed for the level to fall by half in the phase considered) in data set [1] was 1 to 2 h. In addition, in data set [2], the ALT entry is on record as “no difference”, the AST result is “no difference”, the cholesterol entry is recorded as “no difference” and the total triglycerides result is recorded as “no difference”. Besides, the “liver fibrosis scoring compared to vehicle treated controls” value in data set [3] is recorded as “statistically different”. For the same compound, the “effect on plasma UR level” value in the data set with plasma UR is on record as “elevate plasma UR in a linear fashion; also recorded: associated with higher levels of UR”.

Consider `O=c1ccn([C@@H]2O[C@H](CO)[C@@H](O)[C@H]2O)c(=O)[nH]1` [UR, uridine], for which, in data set [4], the “elimination t1/2” value is listed as “only a few minutes”. In addition, in data set [2], the ALT entry is “no difference”, the AST entry is “no difference”, the cholesterol entry is listed as “no difference” and the total triglycerides result is listed as “no difference”. Also, the “liver fibrosis scoring compared to vehicle treated controls” value in data set [3] is “statistically different”.
